Results: US9408827B2, “Sheet for cutaneous application containing vitamin E or an ester thereof” (IneSalus Corp., priority 2013, dated 2016)

How the values were obtained:
[1] = system: reconstituted human epidermis Epi-200 EpiDerm™; assay: Evaluation of the cellular vitality by MTT assay (EpiDerm Skin Irritation Test EPI-200-SIT)
Experimental: The tolerability of the sheets according to the invention was evaluated by means of an in-vitro assay on models of reconstituted epidermis for evaluation of the cumulative irritation.
The assay in question was based on the In vitro Epiderm™ Skin Irritation Test (EPI-200-SIT) developed by the MatTek Corporation, which uses the model of reconstituted human epidermis Epi-200 EpiDerm™.
The assay consists in topical application of the material under testing on the reconstituted epidermis for contact times equal to or greater than 18 hours. The irritation potential is determined by means of evaluation of the cellular vitality using the MTT assay.
Conditions for Conducting the Assay for Evaluation of the Cellular Vitality
Tissue used: EPI-200-SIT EpiDerm™
Culture medium: EPI-100-MM-HCF-60
(§1) Incubation conditions: +37° C. in a 5% CO2 atmosphere
(§2) Treatment with the sample: • continuous contact and incubation for 18 hours (single) • continuous contact and incubation for 7 days (double)
(§3) Application was carried out by applying about 1 cm^2 of sample (i.e. of the sheet according to the invention obtained as per the example given above) per insert.
(§4) Controls Performed for the First Evaluation (18 Hours): • Negative control after 18 hours: inserts not treated • Positive control: inserts treated with 0.5% SDS (Sodium Dodecylsulphate) in sterile water during 18 hours of incubation; […]

[2] = system: reconstituted human epidermis Epi-200 EpiDerm™; assay: Release of IL-1α in the culture medium (ELISA); conditions: 18-hour treatment; Tukey Kramer Multiple Comparisons Test
Experimental: Tissue used: EPI-200-SIT EpiDerm™
Culture medium: EPI-100-MM-HCF-60
as §1, §2
Controls Performed for the First Evaluation (18 Hours): • Negative control after 18 hours: inserts not treated • Positive control: inserts treated with 0.5% SDS (Sodium Dodecylsulphate) in sterile water during 18 hours of incubation;
Controls Performed for the 7-Day Evaluation: • Negative control: inserts not treated with the sample and kept for 7 days in the same incubation conditions as those treated with the sample.
Evaluation of the Release of IL-1α in the Culture Medium:
Evaluation in the culture medium obtained after the period of incubation of the sample with EPI-200. The release is measured by means of specific ELISA.

[3] = system: reconstituted human epidermis Epi-200 EpiDerm™; assay: Release of lactate dehydrogenase (LDH) in the culture medium; conditions: 18-hour treatment; Tukey Kramer Multiple Comparisons Test
Text: Further information for better defining the irritation potential was obtained from subsequent measurement of the following parameters: • evaluation of the release, in the culture medium, of the lactate dehydrogenase (LDH), a cytoplasmic enzyme, release of which indicates loss of integrity of the cellular membrane; • evaluation of the release, in the culture medium, of pro-inflammatory cytokine by means of ELISA (Enzyme Linked Immunosorbent Assay).
Tissue used: EPI-200-SIT EpiDerm™
Culture medium: EPI-100-MM-HCF-60
as §1, §2, §3, §4
Evaluation in the culture medium obtained after the incubation period of the sample with the epidermis model. The culture medium is incubated with a specific reagent so as to allow quantitive determination of the lactate dehydrogenase at 490 nm.

Compound: CCCCCCCCCCCCOS(=O)(=O)[O-].[Na+] [Positive control, Sodium Dodecylsulphate]
- Average value of OD ± SD (MTT) ([1]; 18-hour continuous contact and incubation): 0.185 ± 0.004
- Average value of the % vitality (MTT) ([1]; 18-hour treatment, relative to negative control = 100%): 8.40 ± 0.17%
- Release of IL-1α, statistical comparison in relation to the negative control [2]: *** (*** p < 0.001 extremely significant variation)
- Release of LDH, statistical comparison in relation to the negative control [3]: *** (*** p < 0.001 extremely significant variation)
